Test system: M. aeruginosa UTEX 2385
Test: MIC 96-well microtiter plate assay in BG-11, 10 days
Format: cell-based, Microcystis aeruginosa
Conditions: for In vivo chlorophyll a of M. aeruginosa: 10 days, initial 0.1 ug/L
Protocol: MICs for the samples against M. aeruginosa were determined in a standard 96-well microtiter plate assay in BG-11 with a starting inoculum of ˜1×10^5 cells/mL. Algae plates were incubated for 10 days. MIC concentrations were determined visually, in vivo chlorophyll a was determined fluorometrically, and cell density was determined via direct counting. Samples were tested in duplicate.

In the case of `CCCCCCCCCCCCN.Cl` [1-dodecylammonium chloride], the “In vivo chlorophyll a of M. aeruginosa” value (0.031 active ppm) is reported as 7.20 µg/L, the “In vivo chlorophyll a of M. aeruginosa” value (0.063 active ppm) is reported as 4.65 µg/L and the “In vivo chlorophyll a of M. aeruginosa” value (0.125 active ppm) is reported as 2.05 µg/L. The “In vivo chlorophyll a of M. aeruginosa” value (0.25 active ppm) was 0.15 µg/L, the “In vivo chlorophyll a of M. aeruginosa” value (0.5 active ppm) was 0.00 µg/L and the MIC (Microcystis aeruginosa, UTEX2385, 240 h, determined visually, 10 days incubation, read-out: MIC values per individual sample, M. aeruginosa) was 0.25 µg/mL.
